Laboratory results taken from patent US20250099431A1, “GLP-1R MODULATING COMPOUNDS” (priority 2020, published 2025).
Where two headings read alike, the source gives them in different places.

Legend:
[1] = Microsomal stability (liver microsomal assay, mixed cofactors); predicted hepatic clearance; assay type: in vitro ADME; settings: liver microsomes 1.0 mg protein/mL (+UDPGA +NADPH), 1 μM analyte, 37° C.; scaled with human liver weight and hepatic blood flow 1.3 L/hr/kg
Procedure, shortened: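 Compound at 1 μM with human or rat pooled liver microsomes, alamethicin-treated, pH 7.4 phosphate, NADPH-regenerating plus UDPGA cofactors, 37° C, sampled 0–70 min. Parent/internal standard ratio by RapidFire QToF MS; half-life from initial log-linear decay, scaled to intrinsic and predicted hepatic clearance and hepatic extraction.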

[2] = target: GLP-1R (Homo sapiens (Human), UniProt P43220); assay: GLP-1R activation: cAMP increase in CHO cells stably expressing GLP-1R; assay type: cell-based; settings: 10 point dose response, 30 minutes incubation at 37° C.
Procedure, shortened: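 CHO cells stably expressing GLP-1R were incubated 1 h at 37 °C in medium with 1% BSA, then exposed to compound in a 10-point dose response for 30 min at 37 °C. cAMP rise was detected by HTRF (Gs Dynamic kit). EC50 came from a sigmoidal fit of response against log agonist concentration.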

Sequence of GLP-1R (P43220 24-463): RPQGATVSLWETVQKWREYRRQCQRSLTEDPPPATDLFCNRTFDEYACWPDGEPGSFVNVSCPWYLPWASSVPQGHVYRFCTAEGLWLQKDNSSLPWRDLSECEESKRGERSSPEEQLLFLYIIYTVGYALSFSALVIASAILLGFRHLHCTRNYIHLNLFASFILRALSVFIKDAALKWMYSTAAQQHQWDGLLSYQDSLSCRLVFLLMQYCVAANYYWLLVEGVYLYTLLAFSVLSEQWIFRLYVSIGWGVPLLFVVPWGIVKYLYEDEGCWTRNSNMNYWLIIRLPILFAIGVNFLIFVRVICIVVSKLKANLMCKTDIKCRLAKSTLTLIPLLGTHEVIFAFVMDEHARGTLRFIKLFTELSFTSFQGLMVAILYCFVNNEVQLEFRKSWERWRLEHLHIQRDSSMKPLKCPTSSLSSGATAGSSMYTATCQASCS

SMILES | Predicted Hepatic Clearance (Pred. Cl.) [1] [mL/min/kg] | EC50 ([2]; cAMP increase, read-out: EC50) [nM] | EC50 ([2]; EC50, cAMP increase) [nM]
COCCn1c(Cc2cc(F)c(-c3cccc4c3OC(C)(c3ccc(C#N)cc3F)O4)cc2F)nc2ccc(C(=O)O)cc21 (stereo not shown) [Example 81, 2-(4-(2-(4-cyano-2-fluorophenyl)-2-methylbenzo[d][1, 3]dioxol-4-yl)-2,5-difluorobenzyl)-1-(2-methoxyethyl)-1H-benzo[d]imidazole-6-carboxylic acid] | 8.67 | 26 | –
CC1(c2ccc(C#N)cc2F)Oc2cccc(-c3cc(F)c(Cc4nc5ccc(C(=O)O)cc5n4C[C@@H]4CCO4)c(F)c3)c2O1 (single isomer, unassigned) [Example 93] | 6 | 0.52 | –
COCCn1c(Cc2c(F)cc(-c3cccc4c3OC(C)(c3ccc(Cl)cc3F)O4)cc2F)nc2ccc(C(=O)O)cc21 (stereo not shown) [Example 19, 2-(4-(2-(4-chloro-2-fluorophenyl)-2-methylbenzo[d][1, 3]dioxol-4-yl)-2,6-difluorobenzyl)-1-(2-methoxyethyl)-1H-benzo[d]imidazole-6-carboxylic acid] | 2.5 | 0.97 | –
COCCn1c(Cc2cc(F)c(-c3c(F)ccc4c3OC(C)(c3ccc(Cl)cn3)O4)cc2F)nc2ccc(C(=O)O)cc21 (stereo not shown) [Example 101, 2-(4-(2-(5-chloropyridin-2-yl)-5-fluoro-2-methylbenzo[d][1, 3]dioxol-4-yl)-2,5-difluorobenzyl)-1-(2-methoxyethyl)-1H-benzo[d]imidazole-6-carboxylic acid] | 11.8 | 160 | –
CC1(c2ccc(Cl)cc2F)Oc2cccc(-c3cc(F)c(Cc4nc5ccc(C(=O)O)c(F)c5n4C[C@@H]4CCO4)c(F)c3)c2O1 (stereo partly drawn) [Example 2, 2-(4-(2-(4-chloro-2-fluorophenyl)-2-methylbenzo[d][1, 3]dioxol-4-yl)-2,6-difluorobenzyl)-7-fluoro-1-(((S)-oxetan-2-yl)methyl)-1H-benzo[d]imidazole-6-carboxylic acid] | <1.83 | 0.17 | –
O=C(O)c1ccc2nc(Cc3c(F)cc(-c4cccc5c4CN(c4ccc(Cl)cc4F)C5)cc3F)n(C[C@@H]3CCO3)c2c1 [Example 71, (S)-2-(4-(2-(4-chloro-2-fluorophenyl)isoindolin-4-yl)-2,6-difluorobenzyl)-1-(oxetan-2-ylmethyl)-1H-benzo[d]imidazole-6-carboxylic acid] | 3.83 | 10000 | –
COCCn1c(Cc2csc(-c3cccc4c3OC(C)(c3ccc(Cl)cc3F)O4)c2)nc2ccc(C(=O)O)cc21 (stereo not shown) [Example 61, 2-((5-(2-(4-chloro-2-fluorophenyl)-2-methylbenzo[d][1, 3]dioxol-4-yl)thiophen-3-yl)methyl)-1-(2-methoxyethyl)-1H-benzo[d]imidazole-6-carboxylic acid] | 13 | 639 | –
CC1(c2ccc(C#N)cc2F)Oc2cccc(-c3cc(F)c(Cc4nc5ccc(C(=O)O)cc5n4C[C@@H]4CCO4)c(F)c3F)c2O1 (stereo partly drawn) [Example 90, 2-(4-(2-(4-cyano-2-fluorophenyl)-2-methylbenzo[d][1, 3]dioxol-4-yl)-2,3,6-trifluorobenzyl)-1-(((S)-oxetan-2-yl)methyl)-1H-benzo[d]imidazole-6-carboxylic acid] | 4.67 | 0.23 | –
COCCn1c(Cc2ccc(-c3cccc4c3OC(c3ccccc3)O4)cc2F)nc2ccc(C(=O)O)cc21 (single isomer, unassigned) [Example 35, 2-(2-fluoro-4-(2-phenylbenzo[d][1, 3]dioxol-4-yl)benzyl)-1-(2-methoxyethyl)-1H-benzo[d]imidazole-6-carboxylic acid] | 2.83 | 646 | –
COCCn1c(Cc2ccc(-c3cccc4c3OC(c3ccc(C#N)cc3)O4)cc2F)nc2ccc(C(=O)O)cc21 (stereo not shown) [Example 6, 2-(4-(2-(4-cyanophenyl)benzo[d][1, 3]dioxol-4-yl)-2-fluorobenzyl)-1-(2-methoxyethyl)-1H-benzo[d]imidazole-6-carboxylic acid] | 4.83 | 219 | –
CC1(c2ccc(Cl)cn2)Oc2cccc(-c3cc(F)c(Cc4nc5ccc(C(=O)O)cc5n4C[C@@H]4CCO4)cc3F)c2O1 (single isomer, unassigned) [Example 45] | 5 | 0.19 | –
CC1(c2ccc(Cl)cn2)Oc2cccc(-c3cc(F)c(Cc4nc5ccc(C(=O)O)cc5n4C[C@@H]4CCO4)c(F)c3)c2O1 (single isomer, unassigned) [Example 50] | 3.17 | 16 | –
COCCn1c(Cc2c(F)cc(-c3cccc4c3OC(c3ccc(C#N)cc3F)O4)cc2F)nc2ccc(C(=O)O)cc21 (single isomer, unassigned) [Example 38, 2-(4-(2-(4-cyano-2-fluorophenyl)benzo [d][1,3]dioxol-4-yl)-2,6-difluorobenzyl)-1-(2-methoxyethyl)-1H-benzo[d]imidazole-6-carboxylic acid] | 4 | 37 | –
CC(=O)N1CC[C@@H]1Cn1c(Cc2ccc(-c3cccc4c3OC(C)(c3ccc(Cl)cc3F)O4)cc2F)nc2ccc(C(=O)O)cc21 (stereo partly drawn) [Example 108, 3-[[(2R)-1-acetylazetidin-2-yl]methyl]-2-[[4-[2-(4-chloro-2-fluoro-phenyl)-2-methyl-1,3-benzodioxol-4-yl]-2-fluoro-phenyl]methyl] benzimidazole-5-carboxylic acid] | 2 | 4.3 | –
COCCn1c(Cc2c(F)cc(-c3cccc4c3OC(C)(c3ccc(C(N)=O)cn3)O4)cc2F)nc2ccc(C(=O)O)cc21 (stereo not shown) [Example 67, 2-(4-(2-(5-carbamoylpyridin-2-yl)-2-methylbenzo[d][1, 3]dioxol-4-yl)-2,6-difluorobenzyl)-1-(2-methoxyethyl)-1H-benzo[d]imidazole-6-carboxylic acid] | 7.17 | 20 | –
O=C(O)c1ccc2nc(Cc3c(F)cc(-c4cccc5c4C(=O)N(c4ccc(Cl)cc4F)C5)cc3F)n(C[C@@H]3CCO3)c2c1 [Example 72, (S)-2-(4-(2-(4-chloro-2-fluorophenyl)-3-oxoisoindolin-4-yl)-2,6-difluorobenzyl)-1-(oxetan-2-ylmethyl)-1H-benzo[d]imidazole-6-carboxylic acid] | 3.67 | 10000 | –
COCCn1c(Cc2ccc(-c3cccc4c3OC(c3ccc(C#N)cc3F)O4)cc2F)nc2ccc(C(=O)O)cc21 (single isomer, unassigned) [Example 34] | 4.17 | 350 | –
CC1(c2ccc(Cl)cn2)Oc2ccc(F)c(-c3ccc(Cc4nc5ccc(C(=O)O)cc5n4C[C@@H]4CCO4)c(F)c3)c2O1 (stereo partly drawn) [Example 76, 2-(4-(2-(5-chloropyridin-2-yl)-5-fluoro-2-methylbenzo[d][1, 3]dioxol-4-yl)-2-fluorobenzyl)-1-(((S)-oxetan-2-yl)methyl)-1H-benzo[d]imidazole-6-carboxylic acid] | 8 | 4.3 | –
CC1(c2ccc(Cl)cn2)Oc2cccc(-c3cc(F)c(Cc4nc5ccc(C(=O)O)cc5n4C[C@@H]4CCO4)c(C#N)c3)c2O1 (stereo partly drawn) [Example 74, 2-(4-(2-(5-chloropyridin-2-yl)-2-methylbenzo[d][1, 3]dioxol-4-yl)-2-cyano-6-fluorobenzyl)-1-(((S)-oxetan-2-yl)methyl)-1H-benzo[d]imidazole-6-carboxylic acid] | 7.67 | 1.7 | –
CC1(c2ccc(Cl)cc2F)Oc2cccc(-c3cc(F)c(Cc4nc5c(F)cc(C(=O)O)cc5n4CC4(CC#N)CC4)c(F)c3)c2O1 (stereo not shown) [Example 13, 2-(4-(2-(4-chloro-2-fluorophenyl)-2-methylbenzo[d][1, 3]dioxol-4-yl)-2,6-difluorobenzyl)-1-((1-(cyanomethyl)cyclo-propyl)methyl)-4-fluoro-1H-benzo[d]imidazole-6-carboxylic acid] | <1.83 | 0.41 | –
CCn1cnnc1Cn1c(Cc2c(F)cc(-c3cccc4c3OC(C)(c3ccc(Cl)cc3F)O4)cc2F)nc2ccc(C(=O)O)cc21 (stereo not shown) [Example 68, 2-(4-(2-(4-chloro-2-fluorophenyl)-2-methylbenzo[d][1, 3]dioxol-4-yl)-2,6-difluorobenzyl)-1-((4-ethyl-4H-1,2,4-triazol-3-yl)methyl)-1H-benzo[d]imidazole-6-carboxylic acid] | 2.83 | 12 | –
CC1(c2ccc(Cl)cc2F)Oc2cccc(-c3cc(F)c(Cc4nc5ccc(C(=O)O)cc5n4C[C@@H]4CCO4)c(F)c3)c2O1 (single isomer, unassigned) [Example 47] | 3.17 | – | 0.07
CC1(c2ccc(Cl)cc2F)Oc2cccc(-c3ccc(Cc4nc5ccc(C(=O)O)cc5n4C[C@@H]4CCO4)c(F)c3)c2O1 (stereo partly drawn) [Example 23, 2-(4-(2-(4-chloro-2-fluorophenyl)-2-methylbenzo[d][1, 3]dioxol-4-yl)-2-fluorobenzyl)-1-(((S)-oxetan-2-yl)methyl)-1H-benzo[d]imidazole-6-carboxylic acid] | 2.33 | 0.49 | –
